Results reported in paper PMC7408547, “Bivalent Inhibitor with Selectivity for Trimeric MMP-9 Amplifies Neutrophil Chemotaxis and Enables Functional Studies on MMP-9 Proteoforms” (Cells, 2020).

Assays:
[1] = test system: secretions of fMLF stimulated human granulocytes; experiment: Gelatinolysis in secretions of fMLF stimulated human granulocytes; format: biochemical; conditions: in the presence of 20 µM neutrophil elastase inhibitor; for inhibition of metalloproteinase-derived gelatinolytic signal: highest dose of 100 µM
Method: To determine the inhibition of gelatinolytic activity, we used a previously optimized gelatin degradation assay. Activated MMP-9, activated MMP-2, neutrophil elastase or supernatants of stimulated neutrophils, were incubated with different concentrations of inhibitors and incubated for 30 min at 37 °C. Next, dye-quenched gelatin (DQ™-gelatin, Invitrogen, Carlsbad, CA, USA) was added at a final concentration of 2.5 µg/mL and the increase in fluorescence over time was measured with the CLARIOstar microplate reader (BMG Labtech, Ortenberg, Germany). For other MMPs, the OmniMMP substrate peptide (Mca-PLGL-Dpa-AR-NH2, cat. no. BML-P126-0001, Enzo Life Sciences, Farmingdale, NY, USA) was used at a final concentration of 2.5 µg/mL. For ADAM17 the fluorogenic peptide Mca-PLAQAV-Dpa-RSSSR-NH2 (ES003, R & D systems, Minneapolis, MO, USA) and for neutrophil elastase the fluorogenic substrate MeOSuc-AAPV-AMC (cat. no. 324740, Merck Millipore, Darmstadt, Germany) were used. Proteolytic activity was determined by linear regression of the fluorescence curve and the percentage inhibition was calculated through comparison with the positive control (no inhibitors). When testing supernatants from human neutrophils, the assay was performed in the presence of 20 µM neutrophil elastase inhibitor (Elastase Inhibitor IV, Calbiochem, Darmstadt, Germany).
Neutrophils were isolated from fresh blood from healthy donors, via density gradient centrifugation as described. To obtain neutrophil degranulate, neutrophils were suspended in degranulation buffer (120 mM NaCl, 15 mM CaCl2, 20 mM Tris/HCl pH 7.5) at a concentration of 10^7 cells/mL and degranulation was induced by incubating neutrophils with N-formyl-methionyl-leucyl-phenylalanine (fMLF) (final concentration 0.5 µM) for 20 min at 37 °C as previously described. Next, the supernatant was collected by centrifugation. For fresh blood donations, all subjects gave written informed consent in accordance with the Declaration of Helsinki.

[2] = target: T1, recombinant human MMP-9 mixture (± 70% monomers and ± 30% trimers) (Homo sapiens, UniProt P14780); experiment: Fluorogenic peptide (OmniMMP) degradation assay, recombinant MMP-9 mixture; format: biochemical; conditions: recombinant human MMP-9 (Sf9) mix
T1 construct: made in house; host or cells: Sf9 insect cells
Method: Compounds 5 and 7 were synthesized as previously reported. Full-length human proMMP-9 was produced by recombinant expression in Sf9 insect cells and purified by gelatin-Sepharose chromatography as previously described. Stable full-length proMMP-9 monomers and trimers were separated by glycerol gradient ultracentrifugation as previously described. ProMMP-9 mixture and the separated monomers and trimers were activated by incubation with the catalytic domain of MMP-3 (cat. No. 444217, Merck Millipore, Darmstadt, Germany) as previously described. Activation of proMMP-9 was confirmed by a band shift of ±10 kDa, corresponding to the removal of the auto-inhibitory propeptide domain and by detection of gelatinolytic activity with a previously described gelatin degradation assay. MMP-9 monomers and trimers purified from human neutrophils were purchased (Cat. No. 444,231 and 444232, Sigma-Aldrich, St. Louis, MO, USA). Examples of sample purities and activations can be found in Supplementary Figure S1. Recombinant human proMMP-2 (CHO cell-derived), proMMP-3 (NS0 cell-derived), proMMP-7 (NS0 cell-derived) and proMMP-8 (NS0 cell-derived) were purchased from R & D systems (Minneapolis, MN, USA), dissolved in assay buffer (150 mM NaCl, 5 mM CaCl2, 0.01% Tween-20, 50 mM Tris, pH 7.4) to a concentration of 100 µg/mL and activated by incubation with 1 mM p-aminophenylmercuric acetate for, respectively, 1h, 6h, 2h and 1h. Activation of MMPs was confirmed by a band shift of approximately 10 kDa, corresponding to the removal of the propeptide domain. MMP-14/MT1-MMP (NS0 cell-derived) was also purchased from R & D systems (Minneapolis, MN, USA) and activated by incubation with recombinant human furin (cat. No. 1503-SE-010, R & D systems, Minneapolis, MO, USA) in activation buffer (50 mM Tris, 1 mM CaCl2, 0.5% Brij-35, pH 9) for 1.5 h and activity was tested in assay buffer (50 mM Tris, 3 mM CaCl2, 1 µM ZnCl2, pH 8.5). Active human neutrophil elastase (NE) was purchased from Abcam (Cambridge, UK) and for activity assays of NE the assay buffer was replaced by 200 mM Tris, pH 8.8. ADAM17/TACE (Sf 21 (baculovirus)-derived, R & D systems, Minneapolis, MO, USA) was diluted and evaluated in 25 mM Tris, 2.5 μM ZnCl2, 0.005% Brij-35, pH 9.0. All stocks of the compounds were evaluated for the presence of endotoxin using the EndoZyme II assay (Hyglos bioMérieux, Bernried am Starnberger See, Germany). Endotoxin levels in all concentrated stocks (2.5 mg/mL) were below the accepted limit of 0.5 EU/mL.
To determine the inhibition of gelatinolytic activity, we used a previously optimized gelatin degradation assay. […] […] […] BML-P126-0001, Enzo Life Sciences, Farmingdale, NY, USA) was used at a final concentration of 2.5 µg/mL. For ADAM17 the fluorogenic peptide Mca-PLAQAV-Dpa-RSSSR-NH2 (ES003, R & D systems, Minneapolis, MO, USA) and for neutrophil elastase the fluorogenic substrate MeOSuc-AAPV-AMC (cat. no. 324740, Merck Millipore, Darmstadt, Germany) were used. Proteolytic activity was determined by linear regression of the fluorescence curve and the percentage inhibition was calculated through comparison with the positive control (no inhibitors). When testing supernatants from human neutrophils, the assay was performed in the presence of 20 µM neutrophil elastase inhibitor (Elastase Inhibitor IV, Calbiochem, Darmstadt, Germany).

T1 sequence (P14780 107-707 limits assumed): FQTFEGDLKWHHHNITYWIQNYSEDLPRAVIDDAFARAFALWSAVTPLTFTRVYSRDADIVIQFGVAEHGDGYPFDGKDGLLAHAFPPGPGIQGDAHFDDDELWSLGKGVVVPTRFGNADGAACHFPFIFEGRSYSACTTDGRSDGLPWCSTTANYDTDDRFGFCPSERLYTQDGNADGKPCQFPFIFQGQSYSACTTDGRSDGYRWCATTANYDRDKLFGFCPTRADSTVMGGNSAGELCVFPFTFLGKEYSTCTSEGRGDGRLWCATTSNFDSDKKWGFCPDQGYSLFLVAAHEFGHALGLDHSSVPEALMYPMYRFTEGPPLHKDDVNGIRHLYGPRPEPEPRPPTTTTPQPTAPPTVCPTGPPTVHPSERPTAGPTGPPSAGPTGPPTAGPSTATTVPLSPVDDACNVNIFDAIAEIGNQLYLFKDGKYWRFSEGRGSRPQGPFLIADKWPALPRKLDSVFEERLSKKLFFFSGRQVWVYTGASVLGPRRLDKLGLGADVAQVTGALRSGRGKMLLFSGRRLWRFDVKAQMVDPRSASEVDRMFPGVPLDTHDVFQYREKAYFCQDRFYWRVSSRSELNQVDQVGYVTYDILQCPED

SMILES | inhibition of metalloproteinase-derived gelatinolytic signal, first inhibition plateau ([1]; around a concentration of 1 µM) | inhibition of metalloproteinase-derived gelatinolytic signal [1] | IC25 [2] [nM] | IC50 [2] [nM] | IC75 [2] [nM]
CC(C)[C@H](C(=O)O)N(CCNC(=O)c1cccc(C(=O)NCCN([C@@H](C(=O)O)C(C)C)S(=O)(=O)c2ccc(-c3ccccc3)cc2)c1)S(=O)(=O)c1ccc(-c2ccccc2)cc1 [Compound 7] | approximately 30% | almost complete inhibition | 1.4 | 15 | 169
CC(C)[C@H](C(=O)O)N(CCNC(=O)c1ccccc1)S(=O)(=O)c1ccc(-c2ccccc2)cc1 [Compound 5] | – | approximately 30% | 228 | 726 | 2309
